{"source": "patent US10087199B2", "about": "“Super-resolution imaging compositions and methods using same” (Yale University, priority 2014, dated 2018)", "system": "fixed cells with labeled Golgi", "test": "Photostability in STED microscopy of fixed cells", "assay_type": "cell-based", "settings": "0.52 frames/sec for 29 min (900 images)", "procedure": "To evaluate the merits of Cer-SiR for super-resolution imaging of the Golgi, HeLa cells that stably expressed GalNAcT2-GFP were labeled with Cer-TCO and SiR-Tz, and imaged by confocal and STED microscopy using a commercial Leica instrument (FIGS. 6A-6C). The confocal and STED images were compared in FIG. 6A. […] A direct comparison of the relative photostabilities of Cer-SiR and SiR-SNAP-Rab6 in fixed cells was performed using a custom STED microscope that is optimized for rapid image acquisition (FIG. 6B). Cells labeled with Cer-SiR or SiR-SNAPRab6 were continuously imaged at a rate of 0.52 frames/sec for 29 min (900 images) and the intensity of a line across the Golgi was plotted (FIG. 6B). […]\nSTED imaging was performed on a custom built system (Bewersdorf lab, Yale University) centered around an 80 MHz mode-locked Ti:Sapphhire laser (Chameleon Ultra II, Coherent) tuned to 755 nm as the STED depletion beam. […] Excitation for fluorescence was accomplished with a 640 nm pulsed diode laser (PicoQuant) electronically synchronized to the depletion beam with an additional computer controlled electronic delay (Colby Instruments). The STED depletion and fluorescence excitation beams were combined with a dichroic mirror and directed into a 100×1.4 NA oil immersion objective lens (UPLSAPO 100XO/PSF, Olympus) where they were focused at the sample. […]", "data": [{"smiles": "CCCCCCCCCCCCC/C=C/[C@@H](O)[C@H](CO)NC(=O)CCCCCNC(=O)OC1CCCC2=C(c3ccc(CNC(=O)c4ccc(C(=O)[O-])c(C5=C6C=CC(=[N+](C)C)C=C6[Si](C)(C)c6cc(N(C)C)ccc65)c4)cc3)NN=CC2CC1", "note": "(stereo partly drawn) [Cer-SiR, 4-((4-(7-(((6-(((2S,3R,E)-1,3-dihydroxyoctadec-4-en-2-yl)amino)-6-oxohexyl)carbamoyl)oxy)-2,4a,5,6,7,8,9,10-octahydrocycloocta[d]pyridazin-1-yl)benzyl)carbamoyl)-2-(7-(dimethylamino)-3-(dimethyliminio)-5,5-dimethyl-3,5-dihydrodibenzo[b,e]silin-10-yl)benzoate]", "values": [{"measurement": "Stability of STED images under continuous imaging", "value": "stable throughout all 900 images"}]}]}
